Laboratory results reported in patent publication US20240390404A1, “ANTI-HUMAN NOROVIRUS AGENT” (KEIO UNIVERSITY, priority 2018, published 2024).

Columns and labels:
[1] = tested on: human norovirus GII. 4 strain or GII. 6 strain; assay: Effect of treatment with 2fp-fucose or 6a-fucose after differentiation, on infection and reinfection (RNA titer by real-time RT-PCR); format: cell-based; settings: fucose analog 200 μM added on day 5, infection on day (5+2), 3 days culturing
Experimental: (a) The 2D organoid was disseminated to a 96-well plate. After completion of differentiation induction, two fucose analogs (i.e., 2fp-fucose and 6a-fucose) were each added on day 5 to a concentration of 200 μM, to thereby provide addition groups. The results are shown in FIG. 14(a) and FIG. 14(b), respectively. A non-addition group (untreated group) was also provided. Subsequently, the medium was removed from the wells on day (5+2), and the plate was washed. Then, infection with the GII. 4 strain or the GII. 6 strain was performed.
After the infection treatment, the human norovirus remaining in the medium was removed together with the medium, and the plate was washed thrice with a new medium. After washing, the aforementioned active ingredients were each added to the new medium to a concentration of 200 μM (addition groups), and no addition was performed with respect to the untreated (i.e., non-addition) group. Culturing was performed for 3 days. A portion (10 μL) of the medium was sampled from each well, and the samples were centrifuged at 10,000 g for 10 minutes, to thereby remove cell precipitates. The amount of human norovirus genomic RNA in the supernatant (1 μL) was determined through real-time RT-PCR.
In the test system, the effect of the anti-norovirus agent of the present invention provided after human norovirus infection was estimated on the basis of the following study. Specifically, among the fucose analog-treated 2D organoid cells, the living cells on growth day 3 (i.e., most of them were not infected with human norovirus, by virtue of the effect of the fucose analog) were subjected to a secondary infection operation (i.e., reinfection). The effect of the fucose analog on the reinfection was investigated.
In a specific procedure, the addition groups were prepared through the same procedure as employed in (a) above. The primarily infected cells were cultured in the presence of the fucose analog (200 μM) for 3 days, and the medium was removed from each culture system. After completion of washing, the cells were infected again with human norovirus, and then the virus was removed together with the medium. After completion of the next washing, a medium containing the fucose analog (200 μM) (represented by Reinf+2f-fuc or Reinf+6a-fuc), or a fucose analog-free medium (represented by Reinf−2f-fuc or Reinf−6a-fuc) was added thereto, and culturing was performed for further 3 days. Similar to the above case, the amount of human norovirus released to the supernatant was determined as an RNA titer. In the graphs, the two bars on the right side correspond to (Reinf+2f-fuc and Reinf+6a-fuc) or (Reinf−2f-fuc and Reinf−6a-fuc).

[2] = tested on: human norovirus GII. 6 (K2017 strain); assay: Human norovirus proliferation inhibition in 2D organoid after 2fp-fucose treatment, GII.6 strain; format: cell-based; settings: 3 days treatment before infection, days 3 and 6 after infection
Experimental: (§1) Feces of a human norovirus-infected patent contains a large amount of infectious human norovirus. Thus, the feces of a human norovirus-infected patient is suspended in distilled water or the like to a final concentration of about 10%, to thereby prepare a “10% feces suspension.” The 10% feces suspension is about 10-fold diluted with an ENRA medium. The diluted suspension is added to each of the aforementioned wells having the 2D organoid (5 μL/well) and subjected to incubation for about 3 hours, to thereby proliferate human norovirus. As a result of verification, it has been confirmed that human norovirus proliferates to about 100,000 times the initial count through the culture system employing the 2D organoid.
In the Example, there were tested strains of human norovirus obtained from feces of human norovirus infection patients through the aforementioned procedure and stocked before the test. Specifically, three strains belonging to the genetic group 2 (GII) which accounts for 80 to 90% of the infected patients were selected as test targets. The isolated strain lineages included in GII (FIG. 1) were GII. 6 belonging to “Lineage 1,” GII. […]
The effect of 2fp-fucose treatment on proliferation of human norovirus was investigated for each lineage of norovirus. […] 4, and the viral proliferation amount was determined on days 3 and 6 after infection (FIG. 4).

[3] = tested on: human norovirus GII.4 (K2017 strain); assay: Human norovirus proliferation inhibition in 2D organoid after agent pre-treatment, GII.4 strain; format: cell-based
Experimental: as §1
In the Example, there were tested strains of human norovirus obtained from feces of human norovirus infection patients through the aforementioned procedure and stocked before the test. Specifically, three strains belonging to the genetic group 2 (GII) which accounts for 80 to 90% of the infected patients were selected as test targets. The isolated strain lineages included in GII (FIG. 1) were GII. 6 belonging to “Lineage 1,” GII. 3 belonging to “Lineage 2,” and GII.4 belonging to “Lineage 3” (GII. 6: K2017 strain, GII.3: TCH2004 strain, and GII. 4: K2017 strain).
The effect of 2fp-fucose treatment on proliferation of human norovirus was investigated for each lineage of norovirus. Specifically, after the 2fp-fucose treatment for 3 days, the 2D organoid was infected with each of the aforementioned norovirus strains GII.6, GII. 3, and GII. 4, and the viral proliferation amount was determined on days 3 and 6 after infection (FIG. 4).
Next, there was investigated the effect of the period of time (the number of days) of the 2fp-fucose treatment performed in advance on the anti-human norovirus action of the fucose analog. Specifically, the strain GII. 4 was treated with 2fp-fucose (several concentrations) for 1 to 4 days. […] However, in the group of 3-day treatment, the proliferation inhibition effect was observed by the 200 μM treatment with a certain range of variation in effectiveness. In the group of 4-day treatment, the proliferation inhibition effect was initially observed by 8 μM treatment, and the effect increased in a concentration-dependent manner to a 2fp-fucose concentration of 200 μM. […] Thus, the highest proliferation inhibition effect was obtained in the 2D organoid system through a 200 μM treatment for 3 to 4 days. The test was repeatedly performed three times. Error bars denote SEMs.
The 2D organoid was treated with an agent for 3 days. The tested agents were (a) 2fp-fucose (200 μM), (b) Sofosbuvir (1 μM), (c) Lamivudine (1 μM), (d) Ribavirin (400 μM), and (e) Mizoribine (100 μM). Subsequently, the thus-treated 2D organoid was infected with human norovirus (the norovirus strain GII.4), and the proliferation inhibition effect was determined (FIG. 6). The test was repeatedly performed three times. Error bars denote SEMs.

[4] = tested on: fucose-modified proteins including HBGA on the surface of 2D organoid; assay: HBGA / fucose-modified protein expression on the surface of 2D organoid (binding of FITC-labeled UEA-1); format: cell-based, human; settings: 2fp-fucose 0, 8, 40, 200, 1,000 μM, 4 continuous days
Experimental: The 2D organoid was subjected to a 2fp-fucose treatment (0, 8, 40, 200, and 1,000 μM) for 4 continuous days. Reduction of fucose-modified proteins including HBGA formed on the cell surfaces was investigated by checking binding of FITC (phosphor)-labeled UEA-1 (ulex europaeus agglutinin-1).

[5] = GII.4, groups of 1-day treatment and 2-day treatment with 2fp-fucose

SMILES: CC(=O)OC1O[C@@H](C)[C@@H](OC(C)=O)[C@@H](OC(C)=O)[C@@H]1F (stereo partly drawn) [2fp-fucose, (3S,4R,5R,6S)-3-fluoro-6-methyltetrahydro-2H-pyran-2,4,5-triyl triacetate]
- rise in RNA titer (proliferation of human norovirus) in the addition group [1]: no rise in RNA titer
- rise in RNA titer of the untreated group with respect to the administration system [1]: ≥ 10 fold
- concentration of complete viral proliferation inhibition [2]: ≥ 200 µM
- concentration of slight viral proliferation inhibition ([3]; GII.4 strain, 3 days treatment before infection): 40 µM
- concentration of complete viral proliferation inhibition ([3]; GII.4 strain, 3 days treatment before infection, days 3 and 6 after infection): ≥ 200 µM
- proliferation of human norovirus ([3]; GII.4, 4-day treatment, 1,000 μM): slight proliferation of human norovirus was observed
- viral RNA titer from day 0 to day 7 (proliferation inhibition effect) ([3]; GII.4, agent 200 μM, 3 days treatment before infection): no substantial increase in viral RNA titer was observed
- concentration at which the proliferation inhibition effect was observed ([3]; GII.4, group of 3-day treatment, certain range of variation in effectiveness): 200 µM
- concentration at which the proliferation inhibition effect was initially observed ([3]; GII.4, group of 4-day treatment): 8 µM
- proliferation inhibition effect [3, 5]: no proliferation inhibition effect
- proliferation of human norovirus 3 days after inoculation [3, 5]: ≥ 100 fold
- concentration giving the highest proliferation inhibition effect ([3]; GII.4, treatment for 3 to 4 days): 200 µM
- amount of α-link fucose including HBGA on the surface of the 2D organoid (UEA-1 binding) [4]: decrease in a concentration-dependent manner
